According to patent US4211876A, “3-Pyrazolidinone carboxamides” (E. I. Du Pont de Nemours and Company, priority 1979, dated 1980):
Converted amounts (≈) assume the structure as drawn. Values belong to the compound of their own block, whether it stands above or below them.

Assays:
[1] = test system: rat stomach strip (fundus), contraction caused by PGE1; test: rat stomach assay: PGE1 antagonism, inhibition of PGE1-induced contraction of rat stomach fundus muscle strips; type: cell-based; settings: Tyrode solution pH 7.1, 37°, PGE1 at concentration causing about 25% of maximum response; for IC50: Rattus norvegicus, pH 7.1, rat stomach fundus strip, read-out: PGE1 Antagonist IC50
Method: J. Pharmacol. 12, 344 (1957)]. Male rats are decapitated and a strip is cut from the fundus of the stomach along the greater curvature. The strip (3 to 5 mm wide and 3 to 4 cm long) is suspended in Tyrode solution at pH 7.1 and 37° and gassed continuously with oxygen. Responses of the muscle are monitored isometrically by means of a strain gauge transducer. The above table lists for several compounds of this invention the concentration in μg/ml required to inhibit by 50% the contraction of muscle strips caused by a concentration of PG1 that normally causes about 25% of maximum responses ([…]). Some of the carboxamides were also run against higher concentration of PGE1 and gave greater IC50 values.

[2] = test system: ethanol-induced gastric ulcer; test: ethanol-induced gastric ulcer test in rats (gastric cytoprotection); type: in vivo, rat; settings: for protection against ulcers: 2.0 mg/kg
Method: One of these compounds is the tert-butylcarboxamide 7 of Example 3. In a test designed to detect gastric cytoprotectin [Robert, U.S. Pat. No. 4,097,603], compound 7 inhibited ethanol-induced gastric ulcer to the extent of about 50 % when administered orally to rats at 2 mg/kg. Under similar conditions 0.5 mg/kg of PGE1 inhibited ulcer formation to the extent of 80%. […] At 2.0 mg/kg compound 14 of Example 7 gave about 18% protection and compound 16 of Example 8 gave about 27% protection against ulcers.

[3] = side effects after oral administration to rats; type: in vivo, rat
[4] = pKa measured in 1:1 ethanol/water; type: physicochemical; settings: p-toluenesulfonate salt
Method: This iodamide was treated with pyrazolidinone 6 by a procedure analogous to that used for the synthesis of 10, Example 4b. The crude product 15, was obtained as an oil in 94% yield. A solution of 6.84 g of 15 in 3 ml of dry acetonitrile was added to a solution of 3.39 g of p-toluenesulfonic acid in 26 ml of dry acetonitrile, giving 5.12 g (66%) of salt 16, mp 123°-126°. Recrystallization from acetonitrile gave analytically pure salt 16, mp 129°-130.5°; Anal. calcd. for C28 H49 N3 SO6 : C, 60.51; H, 8.89; N, 7.56; found C, 60.50; H, 8.75; N, 7.89.

[5] = rats, oral, doses as high as 300 mg/kg

SMILES: CCCCCC(O)CCN1CCC(=O)N1CCCCCCC(=O)NC(C)(C)C (stereo not drawn) [Compound 1, N-(tert-butyl)-7[3-oxo-1(3-hydroxy-n-octyl)pyrazolidin-2-yl]heptanamide]
IC50 [1]: 60 µg/mL (≈ 151 µM)

SMILES: CCCCCC(O)CCN1C(=O)CCN1CCCCCCC(=O)NC(C)(C)C (stereo not drawn) [Compound 7, N(tert-Butyl)7[3-oxo-2-(3-hydroxy-n-octyl)pyrazolidin-1-yl]heptanamide]
IC50 [1]: 33 µg/mL (≈ 83 µM) | inhibition of ethanol-induced gastric ulcer ([2]; oral, 2 mg/kg): about 50% | overt prostaglandin-like side effects ([3]; rat, in vivo, po): no overt prostaglandin-like side effects | diarrhea [3, 5]: no mortality or diarrhea | mortality [3, 5]: no mortality

SMILES: CCCCCC(O)CCN1C(=O)CCN1CCCCCCC(=O)NC(C)(C)C (stereo not drawn) [Compound 9, N(tert-Butyl)7[3-oxo-2-(3-hydroxy-n-octyl)pyrazolidin-1-yl]heptanamide]
PGE1 Antagonist IC50 ([1]; rat stomach fundus strip): 60 µg/mL

SMILES: CCCCCC(O)CCN1C(=O)CCN1CCCCCCC(=O)NC(C)(C)CC(C)(C)C (stereo not drawn) [Compound 14, N(1,1,3,3,-Tetramethyl-n-butyl)7[3-oxo-2(3-hydroxy-n-octyl)pyrazolidin-1-yl]heptanamide]
IC50 [1]: 2 µg/mL (≈ 4.41 µM) | protection against ulcers [2]: about 18%

SMILES: CCCCCC(O)CCN1C(=O)CCN1CCCCCCC(=O)NC(C)C (stereo not drawn) [Compound 16, N(iso-Propyl)7[3-oxo-2(3-hydroxy-n-octyl)pyrazolidin-1-yl]heptanamide]
IC50 [1]: 75 µg/mL (≈ 196 µM) | protection against ulcers [2]: about 27% | pKa [4]: 3.25

SMILES: CCCCC[C@H](O)/C=C/[C@H]1[C@H](O)CC(=O)[C@@H]1CCCCCCC(=O)O [PGE1, reference compound]
inhibition of ulcer formation ([2]; similar conditions, 0.5 mg/kg): 80%

More lines, now with the values ahead:

IC50 [1]: 25 µg/mL (≈ 60.7 µM)
SMILES: CCCCCC(O)CCN1CCC(=O)N1CCCCCCC(=O)NC(C)(C)CC (stereo not drawn) [Compound 5, N(tert-Amyl)7[3-oxo-1(3-hydroxy-n-octyl)pyrazolidin-2-yl]heptanamide]

IC50 [1]: 3 to 5 µg/mL (≈ 7.29 to 12.1 µM)
SMILES: CCCCCC(O)CCN1C(=O)CCN1CCCCCCC(=O)NCC(C)(C)C (stereo not drawn) [Compound 10, N(2,2-Dimethylpropyl)7[3-oxo-2(3-hydroxy-n-octyl)-pyrazolidin-1-yl]heptanamide]

IC50 [1]: 5 µg/mL (≈ 12.1 µM)
SMILES: CCCCCC(O)CCN1C(=O)CCN1CCCCCCC(=O)NC(C)(C)CC (stereo not drawn) [Compound 12, N(1,1-Dimethylpropyl)7-[3-oxo-2(3-hydroxy-n-octyl)pyrazolidin-1-yl]heptanamide]

IC50 [1]: 20 µg/mL (≈ 47 µM)
SMILES: CCCCCC(O)CCN1C(=O)CCN1CCCCCCC(=O)N(C(C)C)C(C)C (stereo not drawn) [Compound 13, N,N(Diisopropyl)7-[3-oxo-2(3-hydroxy-n-octyl)-pyrazolidin-1-yl]heptanamide]

IC50 [1]: 175 µg/mL (≈ 492 µM)
SMILES: CCCCCC(O)CCN1C(=O)CCN1CCCCCCC(=O)NC (stereo not drawn) [Compound 17, N-methyl-7[3-oxo-2(hydroxy-n-octyl)pyrazolidin-1-yl]heptanamide]
